Measurements published in patent publication US11661397B2, “1,4-disubstituted imidazole derivative” (Sumitomo Pharma Co., Ltd., priority 2015, dated 2023).
Where “and” joins values, the source holds several entries; their conditions need not be identical. Equal values may be shown once.

Assays:
HCT-116 cells [1] = test: Test for inhibiting sphere-forming ability of cancer cells in the presence of BSA (Test Example 2); type: cell-based; details: Homo sapiens, 96 h; HCT-116 spheres, 5% bovine serum albumin (BSA), 4 days, CellTiter-Glo; read-out: Sphere IC50 value (concentration for 50% inhibition of cell proliferation)
Description: (§1) HCT-116 cells were available from the American Type Culture Collection (ATCC). HCT-116 cells were cultured at 37° C. and 5% CO2 using the McCoy's 5a medium containing 10% fetal bovine serum (FBS) and 1% penicillin/streptomycin. […] The test compounds were added into each well to adjust the final concentration of DMSO to 0.1%, and the cells were cultured for 4 days.

[2] = test system: HCT-116 tumor-bearing mouse; test: Anti-tumor effect to HCT-116 tumor-bearing mouse (Test Example 4); type: in vivo; details: nude mouse, oral
Excerpt: The present compound can be used to evaluate the anti-tumor effect thereof. A 4 to 7-week-old nude mouse (BALB/cAnNCrj-nu/nu, female, CHARLES RIVER LABORATORIES JAPAN, INC.) received intradermal transplantation of HCT-116 cells (ATCC) in an amount of 3×10^6 cells/mouse around the ventral portion. The engraftment of HCT-116 cells was observed 5 to 14 days after the transplantation, and then each compound suspended in a solvent such as 0.5% methylcellulose solution was orally administrated to the mouse in a dose of 1 to 100 mg/kg one to twice daily. The tumor volume was measured over time after the administration to evaluate the effect for reducing the tumor volume by the administration of each compound. The tumor volume can be calculated from the minor axis and the major axis of the tumor measured with a digital caliper (Mitutoyo) according to the following formula: Tumor volume [mm^3]=0.5×minor axis [mm]×(major axis [mm])^2
The tumor volume in control administration group treated with only a solvent such as 0.5% methylcellulose solution was compared with that of the present compound administration group, and T/C value was calculated according the following formula to evaluate the anti-tumor effect of the present compound. T/C (%)=(the tumor volume at the end of administration in the present compound administration group−the tumor volume at the start of administration in the present compound administration group)/(the tumor volume at the end of administration in the control administration group−the tumor volume at the start of administration in the […] administration group)×100
The T/C values (%) of the present compound on each dosage and administration period in the HCT-116 tumor-bearing mouse are shown below.

HCT-116 cells [3] = test: Inhibition of sphere-forming ability of cancer cells (Test Example 1); type: cell-based; details: Homo sapiens, 96 h; HCT-116 spheres, non-adherent, serum-free, 4 days, CellTiter-Glo; read-out: Sphere IC50 value (concentration for 50% inhibition of cell proliferation)
Description: as §1

[4] = dosage 30 mg/kg, administration period 17 days
[5] = dosage 100 mg/kg, administration period 17 days

Compound | IC50 (HCT-116 cells [1]) [nM] | IC50 (HCT-116 cells [3]) [nM] | T/C (%) ([2]; dosage 100 mg/kg, administration period 16 days) | T/C (%) [2, 4] | T/C (%) [2, 5] [%]
O=C(Nc1cn(Cc2cccc(C(F)(F)F)c2)cn1)c1ccc(CO)nc1 [Example 12, 6-(hydroxymethyl)-N-{1-[3-(trifluoromethyl)benzyl]-1H-imidazol-4-yl}nicotinamide] | 60 | < 10 | 49 |  | 
O=C(Nc1cn(Cc2cccc(C(F)(F)F)c2)cn1)c1cnc(CO)s1 [Example 40, 2-(Hydroxymethyl)-N-{1-[3-(trifluoromethyl)benzyl]-1H-imidazol-4-yl}-1,3-thiazole-5-carboxamide] | 629 | 122 |  |  | 
O=C(Nc1cn(Cc2cc(F)c(F)c(F)c2)cn1)c1ccc(CO)nn1 [Example 85, 6-(Hydroxymethyl)-N-[1-(3,4,5-trifluorobenzyl)-1H-imidazol-4-yl]pyridazine-3-carboxamide] | 30 | 20 |  |  | 
Cc1ccc(Cn2cnc(NC(=O)c3cnc(CO)c(C(F)F)c3)c2)cc1C(F)(F)F [Example 70, 5-(difluoromethyl)-6-(hydroxymethyl)-N-{1-[4-methyl-3-(trifluoromethyl)benzyl]-1H-imidazol-4-yl}nicotinamide] | 60 | < 10 |  |  | 
CC(C)(O)c1ccc(/C=C/C(=O)Nc2cn(Cc3cccc(C(F)(F)F)c3)cn2)cn1 [Example 53, (2E)-3-[6-(2-Hydroxypropan-2-yl)pyridin-3-yl]-N-{1-[3-(trifluoromethyl)benzyl]-1H-imidazol-4-yl}prop-2-enamide] | < 10000 | 7200 |  |  | 
CC(=O)NCc1ccc(C(=O)Nc2cn(Cc3cccc(C(F)(F)F)c3)cn2)cn1 [Example 25, 6-[(Acetylamino)methyl]-N-{1-[3-(trifluoromethyl)benzyl]-1H-imidazol-4-yl}nicotinamide] | 4970 | 4480 |  |  | 
O=C(Nc1cn(Cc2cccc(C(F)(F)F)c2)cn1)c1cnc(C(O)CO)c(Cl)c1 (stereo not shown) [Example 28] | 4580 | 847 |  |  | 
Cc1sc(C(=O)Nc2cn(Cc3cc(F)c(F)c(F)c3)cn2)nc1CO [Example 47, 4-(Hydroxymethyl)-5-methyl-N-[1-(3,4,5-trifluorobenzyl)-1H-imidazol-4-yl]-1,3-thiazole-2-carboxamide] | 5460 | 669 |  |  | 
O=C(Nc1cn(Cc2cccc(C(F)(F)F)c2)cn1)c1coc(CO)n1 [Example 37] | 451 | 238 |  |  | 
O=C(Nc1cn(Cc2ccc(F)c(Br)c2)cn1)c1cnc(CO)c(C(F)F)c1 [Example 62, N-[1-(3-bromo-4-fluorobenzyl)-1H-imidazol-4-yl]-5-(difluoromethyl)-6-(hydroxymethyl)nicotinamide] | 50 | < 10 |  |  | 
CCOCc1ccc(C(=O)Nc2cn(Cc3cc(F)c(F)c(F)c3)cn2)cn1 [Example 16] | 1450 | 892 |  |  | 
O=C(Nc1cn(Cc2cc(F)cc(Br)c2)cn1)c1cnc(CO)c(C(F)F)c1 [Example 76, N-[1-(3-bromo-5-fluorobenzyl)-1H-imidazol-4-yl]-5-(difluoromethyl)-6-(hydroxymethyl)nicotinamide] | 60 | 50 |  |  | 
O=C(Nc1cn(Cc2cc(F)c(F)c(F)c2)cn1)c1ccc(CCO)nc1 [Example 13] | 735 | 675 |  |  | 

Second part, led by results:

IC50 (HCT-116 cells [1]) [nM] | IC50 (HCT-116 cells [3]) [nM] | Compound | T/C (%) ([2]; dosage 100 mg/kg, administration period 16 days) | T/C (%) [2, 4] | T/C (%) [2, 5] [%]
59 | 29 | Nc1cc(C(=O)Nc2cn(Cc3cccc(C(F)(F)F)c3)cn2)cnc1CO [Example 45, 5-Amino-6-(hydroxymethyl)-N-{1-[3-(trifluoromethyl)benzyl]-1H-imidazol-4-yl}nicotinamide] |  | 90% and 91% | 81
57 | 10 | Nc1cc(C(=O)Nc2cn(Cc3cc(F)c(F)c(F)c3)cn2)cnc1CO [Example 46, 5-Amino-6-(hydroxymethyl)-N-[1-(3,4,5-trifluorobenzyl)-1H-imidazol-4-yl]nicotinamide] |  |  | 91
60 | 50 | O=C(Nc1cn(Cc2cc(F)cc(Cl)c2)cn1)c1cnc(CO)c(C(F)F)c1 [Example 78, N-[1-(3-chloro-5-fluorobenzyl)-1H-imidazol-4-yl]-5-(difluoromethyl)-6-(hydroxymethyl)nicotinamide] |  |  | 
53 | < 10 | O=C(Nc1cn(Cc2cc(F)c(F)c(F)c2)cn1)c1cnc(CO)c(C(F)F)c1 [Example 18, 5-(difluoromethyl)-6-(hydroxymethyl)-N-[1-(3,4,5-trifluorobenzyl)-1H-imidazol-4-yl]nicotinamide] |  | 63% | 54
60 | 30 | O=C(Nc1cn(Cc2cc(F)cc(C(F)(F)F)c2)cn1)c1cnc(CO)c(C(F)F)c1 [Example 60, 5-(difluoromethyl)-N-{1-[3-fluoro-5-(trifluoromethyl)benzyl]-1H-imidazol-4-yl}-6-(hydroxymethyl)nicotinamide] |  |  | 
57 | < 10 | O=C(Nc1cn(Cc2cccc(C(F)(F)F)c2)cn1)c1cnc(CO)c(C(F)F)c1 [Example 17, 5-(difluoromethyl)-6-(hydroxymethyl)-N-{1-[3-(trifluoromethyl)benzyl]-1H-imidazol-4-yl}nicotinamide] |  | 74% | 75
51 | < 10 | O=C(Nc1nc(CO)cs1)c1cn(Cc2cc(F)c(F)c(F)c2)cn1 [Example 3] |  |  | 
520 | 24 | O=C(Nc1cn(Cc2cccc(C(F)(F)F)c2)cn1)c1csc(CO)n1 [Example 7] |  |  | 
6230 | 695 | O=C(Nc1cn(Cc2cccc(C(F)(F)F)c2)cn1)c1cnc(C(O)CO)c(F)c1 (stereo not shown) [Example 27] |  |  | 
481 | 74 | O=C(Nc1cn(Cc2cccc(C(F)(F)F)c2)cn1)c1cnc(CO)cc1Cl [Example 36] |  |  | 
61 | < 10 | [2H]C([2H])(O)c1ccc(C(=O)Nc2cn(Cc3cccc(C(F)(F)F)c3)cn2)cn1 [Example 4, 6-[Hydroxy (^2H2)methyl]-N-{1-[3-(trifluoromethyl)benzyl]-1H-imidazol-4-yl}nicotinamide] |  |  | 
< 10 | < 10 | Cc1cc(C(=O)Nc2cn(Cc3cc(F)c(F)c(F)c3)cn2)cnc1CO [Example 39, 6-(hydroxymethyl)-5-methyl-N-[1-(3,4,5-trifluorobenzyl)-1H-imidazol-4-yl]nicotinamide] |  | 79% | 65
70 | 40 | O=C(Nc1cn(Cc2ccc(Br)c(F)c2)cn1)c1cnc(CO)c(C(F)F)c1 [Example 67, N-[1-(4-bromo-3-fluorobenzyl)-1H-imidazol-4-yl]-5-(difluoromethyl)-6-(hydroxymethyl)nicotinamide] |  |  | 
571 | 95 | Cc1nc(C(=O)Nc2cn(Cc3cc(F)c(F)c(F)c3)cn2)sc1CO [Example 48, 5-(Hydroxymethyl)-4-methyl-N-[1-(3,4,5-trifluorobenzyl)-1H-imidazol-4-yl]-1,3-thiazole-2-carboxamide] |  |  | 
